We go through four compounds from patent US5670154A, “Reducing tyrosinase activity” (priority 1994, dated 1997).

The test system of this experiment is tyrosinase. In words: Tyrosinase inhibition, absorbance of Dopa-Chroma at 475 nm. To be noted: for Inhibition (%): Inhibitory agent 0.15mg/ml, tyrosine substrate, 30 minutes at 37° C.; for Relative strength of tyrosinase inhibition among the catechins: comparison of the catechins of Table 1. In kind it is biochemical, mushroom. The procedure:
The level of tyrosinase, inhibition was measured according to the following method.
50 μl of the enzyme (8300 U/ml) (Source:mushroom, SIGMA) was added to a mixture of 250 μl of tyrosine substrate solution (0.3 mg/ml), 250 μl of the inhibiting (polyphenol) solution (0.5 mg/ml), 250 μl of Macllvain buffer solution and left for 30 minutes at 37° C. After this time the absorbance of the red colored Dopa-Chroma formed was measured at 475 nm.
Inhibition(%)=[(A-B)-(C-D)]/(A-B)×100
Where A, B, C, D represent the absorbance of solutions A, B, C and D as defined below, measured at 475 nm respectively.
A is the tyrosine+enzyme solution
B is the tyrosine solution
C is the tyrosine+enzyme+polyphenol solution
D is the tyrosine+polyphenol solution

The structures appear in SMILES notation.

For `O=C(O[C@@H]1Cc2c(O)cc(O)cc2O[C@@H]1c1cc(O)c(O)c(O)c1)c1cc(O)c(O)c(O)c1` [Epigallocatechin gallate, (-)Epigallocatechin gallate], the “Inhibition (%)” value came to 79.5% and the “Relative strength of tyrosinase inhibition among the catechins” value is on record as “strongest inhibitors of tyrosinase”.

With `Oc1cc(O)c2c(c1)O[C@H](c1cc(O)c(O)c(O)c1)[C@H](O)C2` [Epigallocatechin, (-)Epigallocatechin], the “Inhibition (%)” value is reported as 17.5%.

`Oc1cc(O)c2c(c1)O[C@H](c1ccc(O)c(O)c1)[C@H](O)C2` [Epicatechin, (-)Epicatechin]: the “Inhibition (%)” value turned out to be 11.9%.

On to `O=C(O[C@@H]1Cc2c(O)cc(O)cc2O[C@@H]1c1ccc(O)c(O)c1)c1cc(O)c(O)c(O)c1` [Epicatechin gallate, (-)Epicatechin gallate], for which the “Inhibition (%)” value came to 95.1% and the “Relative strength of tyrosinase inhibition among the catechins” value is “strongest inhibitors of tyrosinase”.
